What is called IC50 is the concentration at which inhibition is half-maximal.

One assay addresses c-Rel protein (Homo sapiens (Human), UniProt Q04864). Description: Electrophoretic Mobility Shift Assay (EMSA), Rel/NF-κB DNA binding inhibition. The settings on record: 10 nM c-Rel protein, phosphor-labeled CD28RE oligonucleotide. The method, then: Electrophoretic Mobility Shift Assay (EMSA)
DNA binding reaction (20 μL) was carried out in 1×DNA Binding Buffer (10 mM Tris, 40 mM NaCl, 1 mM EDTA, 4% glycerol) with 10 nM c-Rel protein and 0.5 ng phosphor-labeled CD28RE oligonucleotide for 10 minutes at room temperature in 96-well plates. Test compounds, in serial dilutions, were added into each well, and further incubated for 15 minutes before loading onto native 5% polyacrylamide gel. Electrophoresis proceeded for 2.5 hours at 160V. Radioactive signals were quantified using Phospho-Imager. IC50 of compounds of example 1 to 75 were determined by quantifying the intensity of Rel/NF-κB inhibition in EMSA using phospho-imager. An example of EMSA data of the present invention is shown for compound 6 in FIG. 2.

The next assay has as its system NF-κB. Description: NF-κB GFP Assay (NFκB/Jurkat/GFP transcriptional reporter cell line). In kind it is cell-based. The conditions noted are these: Homo sapiens; NF-κB/Jurkat/GFP reporter cells, TNF-α 5 ng/ml, 24 hours; read-out: NF-KB GFP IC50. The method, then: NFκB/Jurkat/GFP transcriptional reporter cell line was obtained from SBI System Biosciences. NF-κB/Jurkat/GFP™ Reporter cells (5×10^5 cells) were plated at a concentration of 1 million cells/ml into each well of a 24-well plate. TNF-α (5 ng/ml) was added. Compounds were added via serial dilutions to corresponding wells. After 24 hours, 100 μl of the cells were transferred to a well of a Costar® UV plate (96 well, No lid, w/ UV Transparent Flat Bottom, Corning, N.Y., Cat#3635) and the intensity of GFP fluorescence was measured (Excitation 485+/−20, Emission 528+/−20) in a Synergy™ HT Multi-Detection Microplate Reader (BioTech, Winooski, Vt.). The intensities of GFP measured were plotted against the […].

A value given as a limit tells only on which side of the number the result lay.

Sequence of c-Rel protein (Q04864 whole entry): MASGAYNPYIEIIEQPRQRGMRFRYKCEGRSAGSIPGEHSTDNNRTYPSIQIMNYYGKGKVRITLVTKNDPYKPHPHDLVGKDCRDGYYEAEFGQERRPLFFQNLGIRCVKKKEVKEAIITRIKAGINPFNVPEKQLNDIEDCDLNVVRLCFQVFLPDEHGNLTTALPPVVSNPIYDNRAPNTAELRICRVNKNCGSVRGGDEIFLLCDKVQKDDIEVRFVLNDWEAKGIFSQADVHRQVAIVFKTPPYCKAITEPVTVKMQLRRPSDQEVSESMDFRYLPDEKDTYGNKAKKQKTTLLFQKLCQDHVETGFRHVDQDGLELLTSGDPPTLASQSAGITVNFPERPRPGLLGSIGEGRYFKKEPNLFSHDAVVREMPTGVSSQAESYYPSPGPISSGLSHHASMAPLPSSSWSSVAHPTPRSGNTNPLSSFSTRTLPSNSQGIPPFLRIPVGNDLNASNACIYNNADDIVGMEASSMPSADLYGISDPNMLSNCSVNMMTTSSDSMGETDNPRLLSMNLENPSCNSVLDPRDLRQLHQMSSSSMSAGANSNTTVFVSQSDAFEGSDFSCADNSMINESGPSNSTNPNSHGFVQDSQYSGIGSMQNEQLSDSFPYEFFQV

Regarding `CCCCCCOc1ccc2cc3c(=O)[nH]c(=O)nc-3oc2c1Cl` [Compound 44], the IC50 was < 0.5 µM at c-Rel protein and < 3 µM with NF-κB.

For `CCCCOc1ccc2cc3c(=O)[nH]c(=O)nc-3oc2c1F` [Compound 45], the IC50 is < 0.5 µM at c-Rel protein and < 5 µM in the assay on NF-κB.

As to `CCCCCCOc1ccc2cc3c(=O)[nH]c(=O)nc-3oc2c1F` [Compound 46], the IC50 on c-Rel protein is < 0.5 µM; in the assay with NF-κB, < 5 µM.

In the case of `CC(C)CCCOc1ccc2cc3c(=O)[nH]c(=O)nc-3oc2c1F` [Compound 47], the IC50 at c-Rel protein was < 1 µM; with NF-κB it was < 5 µM.

Consider `CC(C)COc1ccc2cc3c(=O)[nH]c(=O)nc-3oc2c1F` [Compound 48], for which the IC50 on c-Rel protein was < 0.5 µM; in the assay on NF-κB, < 5 µM.

Regarding `CCOc1ccc2cc3c(=O)[nH]c(=O)nc-3sc2c1` [Compound 49, 8-ethoxy-2H-thiochromeno[2,3-d]pyrimidine-2,4(3H)-dione], the IC50 on c-Rel protein is < 1 µM; in the assay with NF-κB, < 5 µM.

Turning to `CCCCOc1ccc2cc3c(=O)[nH]c(=O)nc-3oc2c1` [Compound 50], the IC50 on c-Rel protein was < 1 µM; in the assay with NF-κB it was < 5 µM.

For `CC(=O)OCCCCOc1ccc2cc3c(=O)[nH]c(=O)nc-3oc2c1` [Compound 51], the IC50 was < 1 µM at c-Rel protein and < 5 µM in the assay on NF-κB.

With `CCCCCCCOc1ccc2cc3c(=O)[nH]c(=O)nc-3oc2c1F` [Compound 52], the IC50 at c-Rel protein was < 0.5 µM; in the assay with NF-κB, < 5 µM.

`O=C(O)CCCCCOc1ccc2cc3c(=O)[nH]c(=O)nc-3oc2c1Cl` [Compound 53, 6-((9-chloro-2,4-dioxo-3,4-dihydro-2H-chromeno[2,3-d]pyrimidin-8-yl)oxy)hexanoic acid]: the IC50 at c-Rel protein was < 5 µM; with NF-κB, < 20 µM.

Regarding `O=C(O)CCCOc1ccc2cc3c(=O)[nH]c(=O)nc-3oc2c1Cl` [Compound 55], the IC50 on c-Rel protein was < 5 µM; with NF-κB, < 20 µM.

Regarding `O=C(O)COc1ccc2cc3c(=O)[nH]c(=O)nc-3oc2c1Cl` [Compound 56], the IC50 is < 5 µM at c-Rel protein and < 20 µM in the assay on NF-κB.

Regarding `COC(=O)CCCCOc1ccc2cc3c(=O)[nH]c(=O)nc-3oc2c1Cl` [Compound 57], the IC50 at c-Rel protein was < 5 µM; in the assay on NF-κB, < 20 µM.

Regarding `CC(=O)OCCCCCCOc1ccc2cc3c(=O)[nH]c(=O)nc-3oc2c1Cl` [Compound 58], the IC50 at c-Rel protein is < 5 µM; in the assay on NF-κB it was < 20 µM.

For `CC(=O)OCCCOc1ccc2cc3c(=O)[nH]c(=O)nc-3oc2c1Cl` [Compound 59], the figures for the IC50 at c-Rel protein and with NF-κB were < 5 µM and < 20 µM, respectively.

In the case of `CC(=O)OCCCCOc1ccc2cc3c(=O)[nH]c(=O)nc-3oc2c1Cl` [Compound 60, 4-((9-chloro-2,4-dioxo-3,4-dihydro-2H-chromeno[2,3-d]pyrimidin-8-yl)oxy)butyl acetate], the IC50 on c-Rel protein is < 5 µM; with NF-κB, < 20 µM.

Regarding `COCCOCCOc1ccc2cc3c(=O)[nH]c(=O)nc-3oc2c1` [Compound 61, 8-(2-(2-methoxyethoxy)ethoxy)-2H-chromeno[2,3-d]pyrimidine-2,4(3H)-dione], the IC50 at c-Rel protein was < 1 µM; in the assay on NF-κB, < 5 µM.

As to `COCCOCCOc1ccc2cc3c(=O)[nH]c(=O)nc-3oc2c1Cl` [Compound 62], the IC50 at c-Rel protein is < 1 µM; in the assay on NF-κB it was < 5 µM.

Regarding `COCCOCCOc1ccc2cc3c(=O)[nH]c(=O)nc-3oc2c1F` [Compound 63], the IC50 on c-Rel protein was < 1 µM; with NF-κB, < 5 µM.

`COCCOCCOc1cc2oc3nc(=O)[nH]c(=O)c-3cc2cc1Cl` [Compound 64]: the concentration for half-maximal inhibition (IC50) on c-Rel protein is < 1 µM; in the assay with NF-κB it was < 5 µM.

`COCCOCCOc1cc2oc3nc(=O)[nH]c(=O)c-3cc2cc1F` [Compound 65]: the IC50 at c-Rel protein was < 1 µM; in the assay on NF-κB it was < 5 µM.

In the case of `COCCCCOc1ccc2cc3c(=O)[nH]c(=O)nc-3oc2c1Cl` [Compound 66, 9-chloro-8-(4-methoxybutoxy)-2H-chromeno[2,3-d]pyrimidine-2,4(3H)-dione], the IC50 was < 1 µM on c-Rel protein and < 5 µM in the assay on NF-κB.

As for `COCCCCOc1ccc2cc3c(=O)[nH]c(=O)nc-3oc2c1` [Compound 67], the IC50 on c-Rel protein was < 1 µM; in the assay on NF-κB, < 5 µM.

For `COCCCCOc1ccc2cc3c(=O)[nH]c(=O)nc-3oc2c1F` [Compound 68], the IC50 on c-Rel protein was < 1 µM; with NF-κB, < 5 µM.

Consider `COCCCCOc1cc2oc3nc(=O)[nH]c(=O)c-3cc2cc1Cl` [Compound 69], for which the IC50 at c-Rel protein is < 1 µM; in the assay on NF-κB it was < 5 µM.

In the case of `COCCCCOc1cc2oc3nc(=O)[nH]c(=O)c-3cc2cc1F` [Compound 70], the IC50 was < 1 µM at c-Rel protein and < 5 µM in the assay with NF-κB.

Turning to `COCCOCCCOc1ccc2cc3c(=O)[nH]c(=O)nc-3oc2c1` [Compound 71], the IC50 at c-Rel protein is < 1 µM; in the assay with NF-κB, < 5 µM.

With `COCCOCCCOc1ccc2cc3c(=O)[nH]c(=O)nc-3oc2c1Cl` [Compound 72], the IC50 is < 1 µM at c-Rel protein and < 5 µM with NF-κB.

On to `COCCOCCCOc1ccc2cc3c(=O)[nH]c(=O)nc-3oc2c1F` [Compound 73], for which the IC50 on c-Rel protein was < 1 µM; in the assay on NF-κB, < 5 µM.

`COCCOCCCOc1cc2oc3nc(=O)[nH]c(=O)c-3cc2cc1Cl` [Compound 74]: the values for the IC50 on c-Rel protein and in the assay with NF-κB were < 1 µM and < 5 µM, respectively.

Consider `COCCOCCCOc1cc2oc3nc(=O)[nH]c(=O)c-3cc2cc1F` [Compound 75, 7-fluoro-8-(3-(2-methoxyethoxy)propoxy)-2H-chromeno[2,3-d]pyrimidine-2,4(3H)-dione], for which the IC50 on c-Rel protein was < 1 µM; in the assay on NF-κB it was < 5 µM.

The record behind these values is US10226464B2, “Small molecule NF-κB inhibitors” (ImmuneTarget, Inc., priority 2015, dated 2019).
